Experimental data from patent US20050261306A1, “Anti-neurodegenerative agents” (priority 2002, published 2005).

Tests used:
NAIP = NAIP production by western blotting in retinoic acid treated H-SY5Y cells (Example 2); format: cell-based; settings: low or high concentration of retinoic acid, 30 μl/ml of 10 mM candidate compound solution, one day, vs controls (lanes 1 and 3)
Procedure: • (1) 3 ml/well of DMEM-HG medium containing H-SY5Y cells (ATCC CRL 2266 strain obtained from American Type Culture Collection; 1×10^5 cells/ml), 10% fetal bovine serum (FBS), 100 units/ml penicillin, and 100 μg/ml streptomycin was aliquoted into each well of a 6 well plate, and incubated for two days at 37° C. Either 3 μl/well (lane 2) or 15 μl/well (lane 4) of all-trans retinoic acid (2 mM) was then added to each well. Wells were then incubated for tree days at 37° C. • (2) Next, 30 μl/ml of candidate compound solution (10 mM) was added to each well and incubated for one day at 37° C. After incubation, each well was washed with 0.25 M NaCl, then filled with 10% trichloroacetic acid (TCA) on ice, and kept on ice for ten minutes. Cells were collected with a scrap and centrifuged (14,000 rpm, ten minutes, 4° C.). To prepare the samples for electrophoresis, 100 μl of urea TX solution (9 M urea solution containing 2% Triton X-100 and 5% 2-mercaptoethanol), 25 μl of 10% lithium dodecyl sulfate (LDS) solution, and 2 μl of 2M Tris solution were added to the obtained pellets. The samples were stored at −80° C. • (3) The samples for electrophoresis obtained in (2) were homogenized and then 10 μl of each sample was loaded onto READYGELSJ (Bio Rad Laboratories) and electrophoresed at 120 V for 75 minutes to conduct SDS-PAGE. […]

Mongolian gerbils = assay: Mongolian gerbil common carotid artery occlusion, hippocampus CA1 region histology (Examples 6-1 to 6-4); format: in vivo; settings: oral, 8, 40, 80 or 240 mg; carotid arteries occluded for ten minutes; hematoxylin-eosin sections
Procedure: A candidate compound was dissolved in physiological saline solution to prepare a 100 mM solution with the pH adjusted to 3 to 4 with 1 N NaOH as necessary. This solution was stored. The solution was diluted with physiological saline at time of use to prepare 0.5 ml of a solution containing 8 mg (Example 6-1), 40 mg (Example 6-2), 80 mg (Example 6-3), or 240 mg (Example 6-4) of a candidate compound. The above solution was administered to Mongolian gerbils. In Examples 6-1 to 6-3, 0.5 ml of the above solution was orally administered every 24 hours. In Example 6-4 the solutions was administered once.
Two hours after the second administration in Examples 6-1 to 6-3, both Mongolian gerbil common carotid arteries were occluded for ten minutes. The gerbils were sacrificed five days later. Two hours after administration in Example 6-4, both Mongolian gerbil common carotid arteries were occluded for ten minutes, and the gerbils were sacrificed three days later. Hematoxylin-eosin stained cross-sections of the brain hippocampus CA1 region tissue were prepared, and the stained sections were expand. […]

ALS model mice = assay: Therapeutic effect in ALS model mice (Cu/Zn-SOD gene transgenic mouse) (Example 7); format: in vivo
Procedure: The in vivo therapeutic effect of compound 1 was examined using an Amyotrophic Lateral Sclerosis (ALS) model animal.
A Cu/Zn-SOD gene transgenic mouse (Saishin Igaku, Vol. 57 (7), “new Amyotrophic Lateral Sclerosis (ALS) model animals”, July, 2002: p. 1622-1627: obtained from Dr. Masashi Aoki at Tohoku University, School of Medicine, Neurology) was used. The ALS model mice were divided into three groups (physiological saline administered group, compound 1 (8 mg/kg) administered group, compound 1 (40 mg/kg) administered group). Physiological saline, compound 1 (8 mg/kg), and compound 1 (40 mg/kg) were orally administered to each ALS mouse once a day from about 7 days before the predicted day of the symptom development (138-139 days after birth) until the day the mice died.

HeLa cells = assay: Cell-death suppressing effect in HeLa cells with cell-death inducing agent, Alamar Blue viable cell count (Example 3); format: cell-based; settings: final concentration of 10 μM of each compound at the time of incubation
Procedure: • (1) HeLa cells (ATCC CCL2 strain obtained from American Type Culture Collection; 1×10^6 cells/ml) were incubated for ten hours at 37° C. under 5% CO2 in DMEM-HG medium supplemented with 10% FBS, 100 units/ml penicillin, and 100 μg/ml streptomycin in a T75 flask. A 250 μl solution containing a candidate compound (10 μM-10 mM) was added to 25 ml of the above culture and incubated for an additional 1, 1.5, or 2 days at 37° C. under 5% CO2. Cells were recovered, washed with the above medium, and counted. The cells were resuspended in the above fresh medium so the medium contained 1×10^5 cells/ml. • (2) 150 μl of the suspension obtained in (1) was added into each well of a 96 well plate and the plate was incubated for four hours at 37° C. […] After ten hours, luminescence was measured with a luminescence detector to determine the viable cell count at excitation and detection wavelengths of 530 nm and 560 nm, respectively. Moreover, the viable cell count of the control, which was prepared in the same way except that a candidate compound solution was not added “Control”) or DMSO was added instead of a candidate compound “DMSO”), was also determined. […]

Structure (SMILES) | 160 kDa bands, presumably derived from NAIP (NAIP) | suppression of cell deformation and deciduation in the CA1 region (Mongolian gerbils) | Days before symptom development (P < 0.01) (ALS model mice; 8 mg/kg orally once a day) | Days between symptom development and death (P < 0.01) (ALS model mice; 8 mg/kg orally once a day) | Days of survival (P < 0.01) (ALS model mice; 8 mg/kg orally once a day) | Days before symptom development (P < 0.01) (ALS model mice; 40 mg/kg orally once a day) | Days between symptom development and death (P < 0.01) (ALS model mice; 40 mg/kg orally once a day) | Days of survival (P < 0.01) (ALS model mice; 40 mg/kg orally once a day) | effect on onset and on period between development of symptoms and death (ALS model mice; 40 mg/kg orally once a day) | Result (cell-death suppressing effect, tests of Example 3) (HeLa cells)
Clc1ccc(N2CCN(Cc3c[nH]c4ncccc34)CC2)cc1 [Compound 1] | significantly strong 160 kDa bands | dose-dependent suppression of cell deformation and deciduation in the CA1 region | 138.1 ± 1.9 days | 23.6 ± 2.0 days | 161.7 ± 3.3 days | 145.2 ± 1.8 days | 28.9 ± 1.6 days | 174.6 ± 2.4 days | delaying the onset and prolonging the period between the development of symptoms and the death | –
Cc1c(C2CCN(CCc3ccccc3)CC2)noc1-c1ccc(Cl)cc1 [Compound 2, 5-(4-chlorophenyl)-4-methyl-3-(1-(2-phenylethyl)piperidin 4-yl) isoxazole] | – | – | – | – | – | – | – | – | – | + or ±
